Type in all cases: functional
In assay [1] the test system is Moloney murine leukemia virus. As to the kind of experiment: In vitro inhibitory activity against Moloney murine leukemia virus (M-MULV) replication, a mammalian T-lymphotropic retrovirus. The conditions noted are these: read-out: ED50 (the source's name).
Assay [2] concerns Moloney murine leukemia virus. Kind of assay: Compound was tested against Moloney murine leukemia virus (M-MULV) in 3T3 cells, at a concentration of 10 uM. The note with it: NIH3T3.
Assay [3] deals with Human immunodeficiency virus 1. As to the kind of experiment: Activity against HTLV-III/LAV[…], was determined in vitro. The conditions noted are these: read-out: ED50 (the source's name).

A value given as a limit tells only on which side of the number the result lay.

Turning to `Cc1cn([C@H]2C[C@H](N)[C@@H](CN)O2)c(=O)[nH]c1=O`, in assay [1], the EC50 is over 100 µM.
In the case of `Cc1cn([C@H]2C=C[C@@H](CO)O2)c(=O)[nH]c1=O` [STAVUDINE], in assay [1], the EC50 came out at 2.5 µM.
In the case of `[N-]=[N+]=N[C@H]1C[C@H](n2cc(F)c(N)nc2=O)O[C@@H]1CO`, in assay [1], the EC50 was over 100 µM.
Turning to `[N-]=[N+]=N[C@H]1C[C@H](n2ccc(N)nc2=O)O[C@@H]1CO`, the EC50 in assay [1] amounted to 58 µM.
`Nc1ccn([C@H]2C=C[C@@H](CO)O2)c(=O)n1`: in assay [1], the EC50 came to 3.7 µM.
Same read-out and setting: the same measure for `O=c1[nH]c(=O)n([C@H]2CC[C@@H](CO)O2)cc1Br`: over 100 µM.
`O=c1ccn([C@H]2C=C[C@@H](CO)O2)c(=O)[nH]1`: in assay [1], the EC50 was over 100 µM.
Take `Cc1cn([C@H]2C[C@H](N=[N+]=[N-])[C@@H](CO)O2)c(=O)nc1N`: the EC50 in assay [1] is over 100 µM.
Turning to `Cc1cn([C@H]2CC[C@@H](CO)O2)c(=O)[nH]c1=O`, the EC50 in assay [1] was over 100 µM. In addition, the inhibition at 10 µM in assay [2] stood at 50%.
For the molecule `Cc1cn([C@H]2C[C@H](N)[C@@H](CO)O2)c(=O)[nH]c1=O` [3-AMINO- 3-DEOXYTHYMIDINE], in assay [1], the EC50 was found to be 42 µM.
Consider `[N-]=[N+]=N[C@H]1C[C@H](n2cc(Br)c(=O)[nH]c2=O)O[C@@H]1CO`, for which the EC50 in assay [3] is 2.3 µM; in assay [1] it was 1.5 µM.
With `O=c1[nH]c(=O)n([C@H]2CC[C@@H](CO)O2)cc1I`, in assay [1], the EC50 was over 100 µM.
Take `Cc1cn([C@H]2C[C@H](N=[N+]=[N-])[C@@H](CN=[N+]=[N-])O2)c(=O)[nH]c1=O`: the EC50 in assay [1] was 17 µM.
`[N-]=[N+]=N[C@H]1C[C@H](n2cc(F)c(=O)[nH]c2=O)O[C@@H]1CO`: the EC50 in assay [1] was over 100 µM.
`Cc1cn([C@H]2C[C@H](N=[N+]=[N-])[C@@H](CO)O2)c(=O)[nH]c1=O` [ZIDOVUDINE]: the EC50 in assay [3] stood at 0.23 µM; in assay [1], 0.02 µM.
In the case of `[N-]=[N+]=N[C@H]1C[C@H](n2cc(C(F)(F)F)c(=O)[nH]c2=O)O[C@@H]1CO`, the EC50 in assay [1] was over 100 µM.
Regarding `Cc1cn([C@H]2C[C@H](O)[C@@H](CN)O2)c(=O)[nH]c1=O`, the EC50 in assay [1] is over 100 µM.
The same measure, in the same setting: in the case of `Cc1cn([C@H]2C[C@H](O)[C@@H](CN=[N+]=[N-])O2)c(=O)[nH]c1=O` it was over 100 µM; in that of `Nc1ccn([C@H]2CC[C@@H](CO)O2)c(=O)n1` [ZALCITABINE], 4 µM; in that of `[N-]=[N+]=N[C@H]1C[C@H](n2ccc(=O)[nH]c2=O)O[C@@H]1CO` [NAVURIDINE], 52 µM.
The same measure, in the same setting: the same measure for `O=c1ccn([C@H]2CC[C@@H](CO)O2)c(=O)[nH]1`: over 100 µM; for `O=c1[nH]c(=O)n([C@H]2CC[C@@H](CO)O2)cc1/C=C/Br`: over 100 µM.
Take `N[C@H]1C[C@H](n2cc(C(F)(F)F)c(=O)[nH]c2=O)O[C@@H]1CO`: in assay [1], the EC50 was over 100 µM.
Regarding `[N-]=[N+]=N[C@H]1C[C@H](n2cc(I)c(=O)[nH]c2=O)O[C@@H]1CO`, the EC50 in assay [1] amounted to 3 µM.

The record behind these values is ChEMBL document CHEMBL1123685, “Synthesis and antiviral activity of various 3'-azido, 3'-amino, 2',3'-unsaturated, and 2',3'-dideoxy analogues of pyrimidine deoxyribonucleosides against retroviruses” (1987).
